Reference: patent US9682126B2, “Postprandial gastrokinetic agent” (ZERIA PHARMACEUTICAL CO., LTD., priority 2013, dated 2017)
Where two headings read alike, the source gives them in different places. Ends that are not written are not given here. * marks the point of attachment. Octanoyl = CCCCCCCC(=O)*

Assays:
subjects = details: cited from earlier work
Suncus murinus [1] = assay: Postprandial motility by co-administration of ghrelin and motilin, ΔMI (Example 3); type: in vivo
Protocol: Each of Suncus motilin (Scrum Inc., Tokyo, Japan) and human ghrelin (Asubio Pharma Co., Ltd., Hyogo, Japan) was dissolved in PBS containing 0.1% bovine serum albumin.
Suncus murinus (male, outbred KAT strain, 7 to 39 weeks old, 56 to 91 g) was used for the experiment. The Each animal was bred in a plastic cage provided with an empty can as a nest box under the following conditions: temperature at 23±2° C., illumination between 8:00 and 20:00, and free intake of commercial trout feed (SP, Nippon Formula Feed Mfg Co., Ltd., Yokohama, Japan).
After 3 hours of fasting, Suncus murinus was anesthetized by an intraperitoneal injection of pentobarbital sodium (50 mg/kg). Through a midline incision, the stomach was exposed outside the body, and a force transducer was fixed via suture in the circular muscle direction of the body of stomach. The wire extending from the force transducer was inserted through the abdominal wall, passed under the skin, and exposed at the back of the neck.
An intravenous catheter was inserted in the right jugular, and extracorporeally fixed to the back. The catheter was filled with heparinized saline (100 units/mL) to prevent clotting.
Each of the operated Suncus murinus was allowed to recover for several days.
Drug administration and measurement of gastric motility were performed in the conscious, free-moving state without anesthesia.
2 g of feed was given to each Suncus murinus fastened (for 8 to 10 hours) for 10 minutes. After the intake of feed for 10 minutes, ghrelin (50, 1,000, or 3,000 ng/kg), motilin (300, 500, 1,000, or 3,000 ng/kg), or a mixed solution of ghrelin (15 or 50 ng/kg) and motilin (100, 200, or 300 ng/kg) was intravenously administered through a jugular vein catheter rapidly.
Amplified analog signals were converted into digital signals by an analog-to-digital converter (ADC-20, Pico Technology Ltd, St Neots, UK), and the digital signals were recorded on a computer.
Phase III contractions of MMC in conscious Suncus murinus were defined on the basis of those in dogs and humans (that is, clustered contractions with an amplitude of 8 g or more that lasts for 5 minutes or more).
Gastric motility was quantitated using a motility index (ΔMI). A motility index (ΔMI) based on a drug was calculated using the following equation. ΔMI (%)=(A−C)/B×100 A: AUC of contractions for 10 minutes during which the drug was administered B: AUC of 10-minute spontaneous phase III contractions appeared before administration of the drug C: (AUC of contractions appeared for 5 minutes between 5 and 10 minutes after the intake of feed)×2 (2) Results (FIG. 9) A. Action of Ghrelin Alone

Suncus murinus [2] = assay: Postprandial gastric motility, force transducer on stomach, motility index MI (Example 1); type: in vivo; details: ghrelin 50 ng/kg iv after 10-min feed intake
Protocol: Effects of administration of each of ghrelin and motilin and co-administration of ghrelin and motilin on postprandial gastric motility in Suncus murinus were studied. Each of Suncus motilin (Scrum Inc., Tokyo, Japan) and human ghrelin (Asubio Pharma Co., Ltd., Hyogo, Japan) was dissolved in phosphate buffered saline (PBS) containing 0.1% bovine serum albumin. Suncus murinus (male, outbred KAT strain, 8 to 9 weeks old, 73 to 90 g) was used for the experiment. Each animal was bred in a plastic cage provided with an empty can as a nest box under the following conditions: temperature at 23±2° C., illumination between 8:00 and 20:00, and free intake of commercial trout feed (SP, Nippon Formula Feed Mfg Co., Ltd., Yokohama, Japan). After 3 hours of fasting, Suncus murinus was anesthetized by an intraperitoneal injection of pentobarbital sodium (50 mg/kg). Through a midline incision, the stomach was exposed outside the body, and a force transducer was fixed via suture in the circular muscle direction of the body of stomach. […] Amplified analog signals were converted into digital signals by an analog-to-digital converter (ADC-20, Pico Technology Ltd, St Neots, UK), and the digital signals were recorded on a computer. […] Gastric motility was quantitated using a motility index (MI). A motility index (MI) based on a drug was calculated using the following equation. […]

[3] = system: isolated stomach of Suncus murinus; details: ghrelin alone, even at a high dose, in vitro; cited from earlier work
Suncus murinus [4] = assay: Gastric motility in interdigestive period, sham-operated vs vagotomized (Example 2); type: in vivo; details: for amplitude of spontaneous phase II contractions: ghrelin 0.1, 0.3, 1, 3, or 10 μg/kg/min iv over 10 minutes in phase II
Protocol: Each of Suncus motilin (Scrum Inc., Tokyo, Japan) and human ghrelin (Asubio Pharma Co., Ltd., Hyogo, Japan) were dissolved in PBS containing 0.1% bovine serum albumin. Suncus murinus (male, outbred KAT strain, 7 to 15 weeks old, 60 to 100 g) was used for the experiment. Each animal was bred in a plastic cage provided with an empty can as a nest box under the following conditions: temperature at 23±2° C., illumination between 8:00 and 20:00, and free intake of commercial trout feed (SP, Nippon Formula Feed Mfg Co., Ltd., Yokohama, Japan). After 3 hours of fasting, Suncus murinus was anesthetized by an intraperitoneal injection of pentobarbital sodium (50 mg/kg). Through a midline incision, the stomach was exposed outside the body, and a force transducer was fixed via suture in the circular muscle direction of the body of stomach. The wire extending from the force transducer was inserted through the abdominal wall, passed under the skin, and exposed at the back of the neck. Thereafter, truncal vagotomy was performed. A lower portion of the esophagus was exposed, both branches of the vagus nerve were isolated, and about 3 mm of the vagus nerve was excised above the hepatic branch and the celiac branch. For sham-operated Suncus murinus, the vagus nerve was exposed, but not excised. An intravenous catheter was inserted in the right jugular, and extracorporeally fixed to the back. The catheter was filled with heparinized saline (100 units/mL) to prevent clotting. From 2 days after the operation, the gastric motility was recorded. Administration of motilin was initiated 10 minutes after completion of spontaneous phase III. Synthesized suncus motilin was continuously injected at 50 ng/kg/min over 10 minutes, and the continuously injected amount was 50 μL/100 g BW/min. Administration of ghrelin was initiated 10 minutes after completion of spontaneous phase II. […] Amplified analog signals were converted into digital signals by an analog-to-digital converter (ADC-20, Pico Technology Ltd, St Neots, UK), and the digital signals were recorded on a computer. Phase III contractions of MMC in conscious Suncus murinus were defined on the basis of those in dogs and humans (that is, clustered contractions with an amplitude of 8 g or more that lasts for 5 minutes or more). Gastric motility was quantitated using a motility index (MI). A motility index (MI) based on a drug was calculated using the following equation. MI (%)=A/B×100 A: AUC of contractions for 10 minutes during which the drug was administered B: […] Statistical analysis After ANOVA, Student's t test was performed.

[5] = ghrelin 50 ng/kg iv after feed intake
[6] = ghrelin 1,000 ng/kg iv after feed intake
[7] = ghrelin 3,000 ng/kg iv after feed intake

| Compound | gastric emptying (subjects; continuous intravenous or massive administration of ghrelin after food intake, healthy subjects and patients with diabetes) | Motility Index (ΔMI) (Suncus murinus [1]; [5]) | contractions of the body of the stomach (Suncus murinus [1]; [5]) | Motility Index (ΔMI) (Suncus murinus [1]; [6]) | contractions of the body of the stomach (Suncus murinus [1]; [6]) | Motility Index (ΔMI) (Suncus murinus [1]; [7]) | contractions of the body of the stomach (Suncus murinus [1]; [7]) | contractions of the body of the stomach (Suncus murinus [2]) | gastric contractions [3] | MI during administration of ghrelin, sham-operated compared with vagotomized (Suncus murinus [4]; phase II of MMC, fasted) | amplitude of spontaneous phase II contractions (Suncus murinus [4]; sham-operated) | amplitude of spontaneous phase II contractions (Suncus murinus [4]; vagotomized) | gastric emptying (subjects; mitemcinal administered to fasting subjects) |
| --- | --- | --- | --- | --- | --- | --- | --- | --- | --- | --- | --- | --- | --- |
| ghrelin: human ghrelin (Asubio Pharma); 28-amino acid residue peptide, hydroxyl group of serine at position 3 esterified by octanoic acid (GSS(Octanoyl)FLSPEHQRVQQRKESKKPPAKLQPR; UniProt Q9UBU3 24-51, looked up) | accelerates gastric emptying | About 2.8% | did not induce contractions of the body of the stomach | About 7.6% | did not induce contractions of the body of the stomach | About 0.03% | did not induce contractions of the body of the stomach | did not induce contractions of the body of the stomach | does not accelerate gastric contractions | higher | amplified the amplitude of spontaneous phase II contractions | did not change the amplitude of spontaneous phase II contractions | – |
| CC[C@H]1OC(=O)[C@H](C)[C@@H](O[C@H]2C[C@@](C)(OC)[C@@H](O)[C@H](C)O2)[C@H](C)[C@@H](O[C@@H]2O[C@H](C)C[C@H](N(C)C(C)C)[C@H]2O)[C@@]2(C)CC(C)=C(O2)[C@H](C)C(=O)[C@]1(C)OC [mitemcinal] | – | – | – | – | – | – | – | – | – | – | – | – | enhances gastric emptying |
